# Test results as given in PubChem BioAssay AID2060912 (Molecular Pharmacology Branch, DTP, NCI, 2025).
# Test system: HUVEC/MSC spheroids viability
# Assay: Human HUVEC/MSC cell line growth inhibition [KRAS2];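 as to viability, T/C: percent of DMSO vehicle control luminescence so 100% = untreated viability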
# Conditions: for IC50: curve of first compound; for viability, T/C: stronger effect = lower value
# Excerpt: Multicellular complex tumor spheroid response to RAS pathway inhibitors in combination with a targeted agents in patient-derived cell lines with oncogenic KRAS variants from multiple cancer types
# A high-throughput screen of multi-cell type tumor spheroids was designed to identify active combinations of targeted small molecules and KRAS pathway inhibitors. Complex spheroids include a stromal component modeled by human endothelial cells (HUVEC) and fibroblasts modeled by human mesenchymal stem cells (MSCs). The concentration ranges selected for each drug and investigational agent were based upon clinically achievable concentrations if the clinical Cmax of the agent was known. * [This particular assayID is a followup dataset requested by reviewers of the manuscript. It is a test of the HUVEC and MSC without the tumor cells, and was conducted using different drug plates and a different plate layout.]
# Compounds. The drugs and investigational agents: BI-3406 (NSC825286), BAY-293 (NSC824723), batoprotafib (TNO155; NSC825523), sotorasib (AMG 510; NSC818433), MRTX1257 (NSC819558), elimusertib (BAY 1895344; NSC800525), molibresib (GSK525762; NSC774829), temuterkib (LY3214996; NSC803410), venetoclax (NSC766270), alisertib (NSC759677), olaparib (NSC753686), talazoparib (NSC767125), erdafitinib (NSC781556), ipatasertib (NSC767898), cabozantinib (NSC761068), nintedanib (NSC756659), abemaciclib (NSC768073), docetaxel (NSC628503), trametinib (NSC758246), and sapanisertib (NSC764658) were obtained from the National Cancer Institute (NCI) Developmental Therapeutics Program Chemical Repository. The FDA-approved anticancer drug set is available from the Developmental Therapeutics Program. […] The stock solutions were prepared in dimethyl sulfoxide (DMSO, Sigma-Aldrich, St. Louis, MO, cat. D2650) at 800-fold the tested concentration and stored at -70 degrees C prior to their use. All drugs and investigational agents were tested over a range starting from a high concentration at or near the clinical Cmax and decreasing in half-log increments. If the clinical Cmax for an agent had not been determined, the highest concentration tested was 10 microM.
# Cell Culture. All cells were maintained in an incubator at 37 degrees C and 5% CO2 with 95% humidity. The PDC lines were cultured according to standard operating procedures established by the NCI PDMR (https://pdmr.cancer.gov/sops/default.htm). Briefly, all PDCs were thawed and cultured in Matrigel-coated flasks prepared with a working solution of 1X Ham's F-12 nutrient mix, without supplementation (Invitrogen, Waltham, MA, cat. 11765054), 100 U/mL penicillin-streptomycin (Invitrogen, cat. 15140122), and 2.5% Matrigel (Corning Inc., Corning, NY, cat. 354248) for the first three passages. All PDCs were cultured in complete DMEM/F-12 media containing advanced DMEM/F-12 (Invitrogen, cat. 12634028), 4.9% defined fetal bovine serum, heat inactivated (HyClone Laboratories Inc., Logan, UT, cat. SH30070.03HI), 389 ng/mL hydrocortisone (Sigma-Aldrich, cat. H4001), 9.7 ng/mL human EGF recombinant protein (Invitrogen, cat. PHG0313), 23.4 microg/mL adenine (Sigma-Aldrich, cat. A2786), 97.3 U/mL penicillin-streptomycin (Invitrogen, cat. 15140122), 1.9 mM L-glutamine (Invitrogen, cat. 25030081), and 9.7 microM Y-27632 dihydrochloride (Tocris Bioscience, Bristol, United Kingdom, cat. 1254). The PDCs were cultured in complete DMEM/F12 media without 9.7 microM Y-27632 dihydrochloride for at least two passages prior to the screen. The established cell line HOP-62 was cultured in RPMI 1640 medium, HEPES (Invitrogen, cat. 22400105) with 10% defined fetal bovine serum (HyClone Laboratories Inc., cat. SH30070.03) and 2 mM L-glutamine (Invitrogen, cat. 25030081). The pooled donor HUVEC were cultured in endothelial cell growth medium 2 (PromoCell, Heidelberg, Germany, cat. C-22011) and the hMSC were cultured in mesenchymal stem cell growth medium 2 (PromoCell, cat. C-28009). […]
structure (smiles),measurement,setting,value
CC(C)n1nc(-c2ccc3oc(N)nc3c2)c2c(N)ncnc21 + C=CC(=O)N1CCN(c2nc(=O)n(-c3c(C)ccnc3C(C)C)c3nc(-c4c(O)cccc4F)c(F)cc23)C(C)C1,IC50,second compound 0.0316 µM,3.06 nM
same,IC50,second compound 0.1 µM,9.63 nM
same,IC50,second compound 0.316 µM,100 nM
same,IC50,second compound 1 µM,> 100 nM
same,IC50,second compound 3.16 µM,> 100 nM
same,IC50,second compound 10 µM,> 100 nM
same,"viability, T/C","second compound 0.0316 µM, first compound 0.000316 µM",88.3%
same,"viability, T/C","second compound 0.0316 µM, first compound 0.001 µM",76.4%
same,"viability, T/C","second compound 0.0316 µM, first compound 0.00316 µM",48.8%
same,"viability, T/C","second compound 0.0316 µM, first compound 0.01 µM",49.7%
same,"viability, T/C","second compound 0.0316 µM, first compound 0.0316 µM",43.2%
same,"viability, T/C","second compound 0.0316 µM, first compound 0.1 µM",44.1%
same,"viability, T/C","second compound 0.1 µM, first compound 0.000316 µM",88.7%
same,"viability, T/C","second compound 0.1 µM, first compound 0.001 µM",59.8%
same,"viability, T/C","second compound 0.1 µM, first compound 0.00316 µM",63.4%
same,"viability, T/C","second compound 0.1 µM, first compound 0.01 µM",48.5%
same,"viability, T/C","second compound 0.1 µM, first compound 0.0316 µM",50.4%
same,"viability, T/C","second compound 0.1 µM, first compound 0.1 µM",36.2%
same,"viability, T/C","second compound 0.316 µM, first compound 0.000316 µM",79.4%
same,"viability, T/C","second compound 0.316 µM, first compound 0.001 µM",86.6%
same,"viability, T/C","second compound 0.316 µM, first compound 0.00316 µM",53.5%
same,"viability, T/C","second compound 0.316 µM, first compound 0.01 µM",52.5%
same,"viability, T/C","second compound 0.316 µM, first compound 0.0316 µM",64.4%
same,"viability, T/C","second compound 0.316 µM, first compound 0.1 µM",50.6%
same,"viability, T/C","second compound 1 µM, first compound 0.000316 µM",94%
same,"viability, T/C","second compound 1 µM, first compound 0.001 µM",73.1%
same,"viability, T/C","second compound 1 µM, first compound 0.00316 µM",65%
same,"viability, T/C","second compound 1 µM, first compound 0.01 µM",51.9%
same,"viability, T/C","second compound 1 µM, first compound 0.0316 µM",65%
same,"viability, T/C","second compound 1 µM, first compound 0.1 µM",53.5%
same,"viability, T/C","second compound 3.16 µM, first compound 0.000316 µM",86.2%
same,"viability, T/C","second compound 3.16 µM, first compound 0.001 µM",74.9%
same,"viability, T/C","second compound 3.16 µM, first compound 0.00316 µM",66.6%
same,"viability, T/C","second compound 3.16 µM, first compound 0.01 µM",60.6%
same,"viability, T/C","second compound 3.16 µM, first compound 0.0316 µM",62.3%
same,"viability, T/C","second compound 3.16 µM, first compound 0.1 µM",56.4%
same,"viability, T/C","second compound 10 µM, first compound 0.000316 µM",75%
same,"viability, T/C","second compound 10 µM, first compound 0.001 µM",67.4%
same,"viability, T/C","second compound 10 µM, first compound 0.00316 µM",72.9%
same,"viability, T/C","second compound 10 µM, first compound 0.01 µM",76.3%
same,"viability, T/C","second compound 10 µM, first compound 0.0316 µM",60.4%
same,"viability, T/C","second compound 10 µM, first compound 0.1 µM",54.9%
